In patent US20230073777A1, “CYCLIC-AMP RESPONSE ELEMENT BINDING PROTEIN (CBP) AND/OR ADENOVIRAL E1A BINDING PROTEIN OF 300 KDA (P300) DEGRADATION COMPOUNDS AND METHODS OF USE” (CULLGEN (SHANGHAI), INC., priority 2019, published 2023):
“Also recorded” adds a separate entry of the source.

Key:
P300/CBP = assay: Immunoblotting of P300/CBP protein levels in LNCaP or 22RV1 cells; assay type: cell-based; conditions: LNCaP cells, 10 nM single dose (FIG. 8)
Procedure: Specific exemplary bivalent compounds were characterized in LNCaP or 22RV1 cells. LNCaP or 22RV1 cells that express CBP/P300 proteins were treated with GNE-781 or the bivalent compounds disclosed herein (P-001 to P-174) for indicated hours. Cells were collected, lysed and subject to immunoblotting using an antibody specific to P300 or CBP proteins. Tubulin or vinculin was included as the loading control. DMSO was used as the negative control.
Cultured cells or tissue chunks were washed with cold PBS once and lysed in cold RIPA buffer supplemented with protease inhibitors and phosphatase inhibitors (Beyotime Biotechnology). The solutions were then incubated at 4° C. for 30 minutes with gentle agitation to fully lyse cells. Cell lysates were centrifuged at 13,000 rpm for 10 minutes at 4° C. and pellets were discarded. Total protein concentrations in the lysates were determined by BCA assays (Beyotime Biotechnology). Cell lysates were mixed with Laemmli loading buffer to 1× and heated at 99° C. for 5 min. Proteins were resolved on SDS-PAGE and visualized by chemiluminescence. Images were taken by a ChemiDoc MP Imaging system (Bio-Rad). Protein bands were quantitated using the accompanied software provided by Bio-Rad.

WSU-DLCL2 = assay: Cell viability assay, WSU-DLCL2; assay type: cell-based; conditions: Homo sapiens, WSUDLCL2, WSU-DLCL2, Diffuse large B-cell lymphoma
Procedure: (§1) Cells were seeded at a density of 5000 cells per well in 96-well assay plates and treated with test compounds following a 12-point 3-fold serial dilution. Three days later, cell viability was determined using the CellTiter-Glo assay kit according to the manufacturer's instructions. The dose-response curves were determined and IC50 values were calculated using the GraphPad Prism software following a nonlinear regression (least squares fit) method.
(§2) The IC50 value of each compound was determined as described in FIG. 4 and calculated using the GraphPad Prism 5.0 software.

Kasumi-1 = assay: Cell viability assay, Kasumi-1; assay type: cell-based; conditions: Homo sapiens, Kasumi-1, Acute myeloid leukemia
Procedure: as §1, §2

MM.1S = assay: Cell viability assay, MM.1S; assay type: cell-based; conditions: Homo sapiens, MM1.S, Multiple Myeloma
Procedure: as §1, §2

NCI-H929 = assay: Cell viability assay, NCI-H929; assay type: cell-based; conditions: Homo sapiens, NCI-H929, Multiple Myeloma
Procedure: as §1, §2

MEG-01 = assay: Cell viability assay, MEG-01; assay type: cell-based; conditions: Homo sapiens, MEG-01, Chronic myeloid leukemia
Procedure: as §1, §2

L-363 = assay: Cell viability assay, L-363; assay type: cell-based; conditions: Homo sapiens, L-363, Multiple myeloma
Procedure: as §1, §2

HEL = assay: Cell viability assay, HEL; assay type: cell-based; conditions: Homo sapiens, Erythroleukemia
Procedure: as §1, §2

RPMI-8226 = assay: Cell viability assay, RPMI-8226; assay type: cell-based; conditions: Homo sapiens, RPMI-8226, Multiple myeloma
Procedure: as §1, §2

VCaP = assay: Cell viability assay, VCaP; assay type: cell-based; conditions: Homo sapiens, Prostate carcinoma
Procedure: as §1, §2

P300 [1] = target: T1, P300 (Homo sapiens, UniProt Q09472); assay: Immunoblotting of P300 protein levels in LNCaP or 22RV1 cells; assay type: cell-based; parameters: LNCaP or 22RV1 cells that express CBP/P300 proteins were treated with GNE-781 or the bivalent compounds; endogenous in cells; host or cells: LNCaP (clone FGC) or 22RV1 cells; conditions: for inhibition at 0.01 µM: percentage of inhibition of p300 at 10 nM (Table 2), read-out: Degradation (10 nM)
T1 sequence (Q09472 whole entry): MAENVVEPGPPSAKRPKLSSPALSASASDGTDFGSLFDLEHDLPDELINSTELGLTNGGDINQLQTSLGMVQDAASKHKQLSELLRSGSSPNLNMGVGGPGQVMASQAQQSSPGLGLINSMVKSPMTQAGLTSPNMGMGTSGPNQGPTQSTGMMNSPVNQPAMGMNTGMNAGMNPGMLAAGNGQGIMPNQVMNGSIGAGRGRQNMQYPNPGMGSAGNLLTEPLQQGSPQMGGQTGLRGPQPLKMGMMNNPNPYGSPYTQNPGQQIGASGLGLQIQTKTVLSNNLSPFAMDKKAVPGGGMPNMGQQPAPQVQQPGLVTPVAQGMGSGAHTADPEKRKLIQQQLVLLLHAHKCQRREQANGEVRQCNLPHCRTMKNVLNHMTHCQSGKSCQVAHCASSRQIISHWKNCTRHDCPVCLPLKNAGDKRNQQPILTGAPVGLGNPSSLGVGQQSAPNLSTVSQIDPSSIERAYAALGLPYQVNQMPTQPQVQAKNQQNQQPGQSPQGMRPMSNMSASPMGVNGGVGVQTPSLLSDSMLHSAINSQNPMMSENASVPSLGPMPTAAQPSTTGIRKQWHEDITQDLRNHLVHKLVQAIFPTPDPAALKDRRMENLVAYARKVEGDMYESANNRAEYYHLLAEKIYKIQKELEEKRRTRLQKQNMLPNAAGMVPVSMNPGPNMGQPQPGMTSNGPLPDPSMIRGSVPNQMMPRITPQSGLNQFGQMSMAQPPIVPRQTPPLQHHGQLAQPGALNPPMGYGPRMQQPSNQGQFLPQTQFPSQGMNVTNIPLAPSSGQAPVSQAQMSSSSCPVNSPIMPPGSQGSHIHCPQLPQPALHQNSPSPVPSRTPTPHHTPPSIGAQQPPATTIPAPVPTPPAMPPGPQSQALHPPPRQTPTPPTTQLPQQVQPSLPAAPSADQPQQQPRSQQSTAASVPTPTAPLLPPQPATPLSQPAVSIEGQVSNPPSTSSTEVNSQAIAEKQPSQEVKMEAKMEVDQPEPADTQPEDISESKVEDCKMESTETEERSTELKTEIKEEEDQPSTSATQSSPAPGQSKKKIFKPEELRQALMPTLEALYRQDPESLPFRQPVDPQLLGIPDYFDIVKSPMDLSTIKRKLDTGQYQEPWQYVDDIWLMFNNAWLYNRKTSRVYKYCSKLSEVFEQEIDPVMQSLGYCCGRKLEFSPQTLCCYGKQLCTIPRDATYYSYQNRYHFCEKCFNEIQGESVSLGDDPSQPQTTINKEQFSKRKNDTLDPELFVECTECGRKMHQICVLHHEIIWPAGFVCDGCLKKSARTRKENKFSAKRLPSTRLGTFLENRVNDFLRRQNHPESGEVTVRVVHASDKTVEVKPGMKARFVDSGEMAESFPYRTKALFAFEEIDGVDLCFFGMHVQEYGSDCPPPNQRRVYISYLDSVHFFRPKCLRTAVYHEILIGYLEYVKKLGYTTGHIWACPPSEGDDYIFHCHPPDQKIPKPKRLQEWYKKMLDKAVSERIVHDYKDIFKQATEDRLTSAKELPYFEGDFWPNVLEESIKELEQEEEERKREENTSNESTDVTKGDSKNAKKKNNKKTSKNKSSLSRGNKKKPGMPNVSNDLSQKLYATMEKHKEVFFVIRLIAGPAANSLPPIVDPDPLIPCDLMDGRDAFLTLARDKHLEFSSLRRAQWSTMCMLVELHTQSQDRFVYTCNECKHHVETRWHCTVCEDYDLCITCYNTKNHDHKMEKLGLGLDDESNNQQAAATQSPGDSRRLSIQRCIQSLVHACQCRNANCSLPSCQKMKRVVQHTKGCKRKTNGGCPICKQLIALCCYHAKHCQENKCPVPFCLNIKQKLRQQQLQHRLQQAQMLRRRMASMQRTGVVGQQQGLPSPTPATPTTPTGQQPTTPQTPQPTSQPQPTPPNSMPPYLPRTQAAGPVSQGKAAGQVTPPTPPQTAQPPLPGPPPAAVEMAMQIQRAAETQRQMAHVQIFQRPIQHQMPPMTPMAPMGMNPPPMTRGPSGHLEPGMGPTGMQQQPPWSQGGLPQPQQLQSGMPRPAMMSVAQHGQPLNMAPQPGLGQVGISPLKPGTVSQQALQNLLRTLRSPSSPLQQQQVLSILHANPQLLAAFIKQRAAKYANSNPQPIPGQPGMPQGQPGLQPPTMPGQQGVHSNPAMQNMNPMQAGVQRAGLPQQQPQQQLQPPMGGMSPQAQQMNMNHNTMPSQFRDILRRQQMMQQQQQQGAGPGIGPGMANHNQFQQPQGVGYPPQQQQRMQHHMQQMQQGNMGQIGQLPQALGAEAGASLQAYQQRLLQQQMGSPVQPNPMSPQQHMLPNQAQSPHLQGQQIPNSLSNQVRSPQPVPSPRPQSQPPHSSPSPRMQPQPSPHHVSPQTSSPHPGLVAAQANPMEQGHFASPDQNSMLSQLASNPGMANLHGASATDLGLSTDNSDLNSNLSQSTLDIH
Outline: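 LNCaP or 22RV1 cells treated with compounds for indicated hours, DMSO as negative control. RIPA lysates resolved by SDS-PAGE and immunoblotted for P300 or CBP, tubulin or vinculin as loading control; chemiluminescent bands quantitated.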

SK-BR-3 = assay: Cell viability assay, SK-BR-3; assay type: cell-based; conditions: Homo sapiens, SK-BR-3, breast carcinoma
Procedure: as §1, §2

NCI-H520 = assay: Cell viability assay, NCI-H520; assay type: cell-based; conditions: Homo sapiens, NCI-H520, Non-small cell lung cancer
Procedure: as §1, §2

MOLM-13 = assay: Cell viability assay, MOLM-13; assay type: cell-based; conditions: Homo sapiens, MOLM-13, Acute monocytic leukemia
Procedure: as §1, §2

HL-60 = assay: Cell viability assay, HL-60; assay type: cell-based; conditions: Homo sapiens, HL-60, Acute myeloid leukemia
Procedure: as §1, §2

P300 [2] = target: T1, P300; assay: Pharmacodynamic study, P300 in 22RV1 subcutaneous xenograft tumors; assay type: in vivo, Athymic nude mice; parameters: from tissue; host or cells: 22RV1 subcutaneous xenograft tumours in athymic nude mice; conditions: single dose 40 mg/kg, i.p. or p.o., six hours after administration (FIG. 9)
Procedure: In addition to cultured cells, athymic nude mice bearing 22RV1 subcutaneous xenograft tumors at the right flank were intraperitoneally or orally treated with 40 mg/kg bivalent compounds. Six hours after drug administration, animals were sacrificed for immunoblotting of P300 and CBP in homogenized xenograft tumor masses. […] Moreover, ICR mice were orally treated with 40 mg/kg bivalent compounds. Six hours after drug administration, animals were sacrificed for immunoblotting of CBP in homogenized lung tissues.
Athymic nude mice bearing 22RV1 subcutaneous xenograft tumors at the right flank were intraperitoneally or orally treated with selected bivalent compounds at 40 mg/kg. Six hours after drug administration, animals were sacrificed, and xenograft tumors were collected for immunoblotting of P300 and CBP.
All animal experiments were performed under protocols approved by the Institutional Animal Care and Use Committee (IACUC) of Cullgen. Athymic nude mice (male, 5-weeks old) received 5 million 22RV1 cells subcutaneously inoculated at the right flank site. Twenty days following inoculation, tumors were approximately 500 mm^3 in size. Tumor-bearing mice were treated intraperitoneally or via oral gavage with vehicle or bivalent compounds at indicated doses. 6 hours after drug administration, animals were sacrificed, tumors were resected. Small chunks of tumors were homogenized for immunoblotting of P300/CBP and other proteins as indicated. Alternatively, ICR mice (male, 5-weeks old) were treated via oral gavage with vehicle or bivalent compounds at indicated doses. 6 hours after drug administration, animals were sacrificed, lung tissues were resected. Small chunks of lung tissues were homogenized for immunoblotting of CBP and other proteins as indicated.

AMO-1 = assay: Cell viability assay, AMO-1; assay type: cell-based; conditions: Homo sapiens, AMO1, AMO-1, Multiple Myeloma
Procedure: as §1, §2

MM.1R = assay: Cell viability assay, MM.1R; assay type: cell-based; conditions: Multiple Myeloma
Procedure: as §1, §2

Karpas-422 = assay: Cell viability assay, Karpas-422; assay type: cell-based; conditions: Homo sapiens, Karpas-422, Diffuse large B-cell lymphoma
Procedure: as §1, §2

22Rv1 = assay: Cell viability assay, 22Rv1; assay type: cell-based; conditions: Homo sapiens, 22Rv1, Prostate carcinoma
Procedure: as §1, §2

IC50 (MM.1S) [nM]	IC50 (NCI-H929) [nM]	IC50 (RPMI-8226) [nM]	IC50 (VCaP) [nM]	inhibition at 0.01 µM (P300 [1]) [%]	IC50 (SK-BR-3) [nM]	IC50 (NCI-H520) [nM]	IC50 (MOLM-13) [nM]	IC50 (HL-60) [nM]	P300 protein levels in 22RV1 xenograft tumors (P300 [2])	IC50 (MM.1R) [nM]	IC50 (Karpas-422) [nM]	IC50 (22Rv1) [nM]	Structure (SMILES)	degradation of P300/CBP in combination with pomalidomide, MG-132, Bortezomib or MLN4924 (P300/CBP)	IC50 (WSU-DLCL2) [nM]	IC50 (Kasumi-1) [nM]	IC50 (MEG-01) [nM]	IC50 (L-363) [nM]	IC50 (HEL) [nM]	IC50 (AMO-1) [nM]	also measured
0.7	0.9	3.7	2.1	> 80	5.5	2.8	7.7	17	significantly reducing	0.3	6.2	3.2	CNC(=O)N1CCc2c(c(N3CCCc4cc(-c5cnn(C)c5)c(C(F)F)cc43)nn2C2CCN(C(=O)CCCCCCCNc3ccc4c(c3)C(=O)N(C3CCC(=O)NC3=O)C4=O)CC2)C1 (centres unmarked) [P-007, 3-(7-(difluoromethyl)-6-(1-methyl-1H-pyrazol-4-yl)-3,4-dihydroquinolin-1(2H)-yl)-1-(1-(8-((2-(2,6-dioxopiperidin-3-yl)-1,3-dioxoisoindolin-5-yl)amino)octanoyl)piperidin-4-yl)-N-methyl-1,4,6,7-tetrahydro-5H-pyrazolo[4,3-c]pyridine-5-carboxamide]	compromised; also recorded: neutralized	0.4	87.8	7.9	3	16.1	38.7	–
0.2	0.2	9.4	3.6	> 80	10.1	2	6.9	2.9	significantly reducing	0.1	0.9	8.2	CNC(=O)N1CCc2c(c(N3CCCc4cc(-c5cnn(C)c5)c(C(F)F)cc43)nn2C2CCN(C(=O)CCCCCNc3cccc4c3C(=O)N(C3CCC(=O)NC3=O)C4=O)CC2)C1 (centres unmarked) [P-034, 3-(7-(difluoromethyl)-6-(1-methyl-1H-pyrazol-4-yl)-3,4-dihydroquinolin-1(2H)-yl)-1-(1-(6-((2-(2,6-dioxopiperidin-3-yl)-1,3-dioxoisoindolin-4-yl)amino)hexanoyl)piperidin-4-yl)-N-methyl-1,4,6,7-tetrahydro-5H-pyrazolo[4,3-c]pyridine-5-carboxamide]	compromised; also recorded: neutralized	0.4	1150	15.3	0.4	37.8	141	P300 protein levels, dependence on interaction with cereblon (P300 [1]; LNCaP or 22RV1 cells, various concentrations (FIG. 7)): P300 degradation induced by P-034
